Among the test systems are OVCAR-5 ovarian; HT29 colon; KM12 colon; COLO 205 colon; SN12C renal; OVCAR-4 ovarian; MALME-3M melanoma; HOP-92 NSCLC; HCT-116 colon; MDA-MB-435; SF-295 CNS; T-47D breast; CAKI-1 renal; OVCAR-8 ovarian; HCC-2998 colon; DU-145 prostate; NCI-H23 lung; SR leukemia.
Holding throughout (assay): NCI anticancer screen, dose series, 48 h

The structures appear in SMILES notation.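 Grown in 96-well plates, cells were treated for 48 hours with each compound at five concentrations. Insufficient inhibition: endpoint recorded as highest concentration tested. TGI denotes the concentration required for complete inhibition of growth.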

For `Cc1cc(NCCCCCCCCCC[n+]2c(C)cc(N)c3ccccc32)c2ccccc2n1`, the TGI in the test with OVCAR-5 ovarian is 24.7 µM; in the test with HT29 colon, over 100 µM; in the test on KM12 colon it was 2.4 µM; in the test with COLO 205 colon, 1.22 µM; with SN12C renal, 5.85 µM; with OVCAR-4 ovarian, over 100 µM. Further, the TGI in the test with MALME-3M melanoma worked out at 18.5 µM; in the test with HOP-92 NSCLC it was 7.62 µM; with HCT-116 colon, 11.7 µM; in the test on MDA-MB-435, 5.86 µM; with SF-295 CNS, 13.6 µM; with T-47D breast, 12.3 µM. Further, the TGI in the test with CAKI-1 renal is 30.7 µM; in the test on OVCAR-8 ovarian it was 15.8 µM; in the test on HCC-2998 colon, 6.01 µM; in the test with DU-145 prostate, 22.3 µM; in the test on NCI-H23 lung, 6.54 µM.

Turning to `COC(=O)c1ccccc1/C=C1\Cc2cc(C)cc(C)c2C1=O`, the TGI with OVCAR-5 ovarian, with HT29 colon, in the test on KM12 colon, in the test on SN12C renal, with MALME-3M melanoma and in the test on HCT-116 colon was over 100 µM throughout. The TGI with SF-295 CNS, with T-47D breast, with SR leukemia, with OVCAR-8 ovarian, in the test with HCC-2998 colon and with DU-145 prostate was over 100 µM in each case. The molecule further gave a TGI in the test with NCI-H23 lung of over 100 µM.

Regarding `[O-][n+]1onc(-c2ccccc2)c1CN1CCOCC1`, the TGI in the test with OVCAR-5 ovarian, in the test with HT29 colon, in the test on KM12 colon, in the test with COLO 205 colon, with SN12C renal and in the test on OVCAR-4 ovarian was over 100 µM throughout. Further, the TGI in the test on MALME-3M melanoma, with HOP-92 NSCLC, in the test with HCT-116 colon, in the test on MDA-MB-435, with SF-295 CNS and in the test on T-47D breast was over 100 µM each time. For the same molecule, the TGI in the test with CAKI-1 renal, in the test with OVCAR-8 ovarian, in the test on HCC-2998 colon, in the test with DU-145 prostate and in the test with NCI-H23 lung was over 100 µM in each case.

On to `CN(/N=C/c1ccccn1)C1=NCCCCN1`, for which the TGI with OVCAR-5 ovarian, in the test with HT29 colon, with KM12 colon, in the test on COLO 205 colon, in the test with OVCAR-4 ovarian and in the test on MALME-3M melanoma was over 100 µM in each case. For the same molecule, the TGI with HOP-92 NSCLC, in the test on HCT-116 colon, with MDA-MB-435, in the test with SF-295 CNS, in the test with T-47D breast and in the test with SR leukemia was over 100 µM throughout. The TGI in the test on CAKI-1 renal, in the test on OVCAR-8 ovarian, in the test with HCC-2998 colon and in the test on NCI-H23 lung was over 100 µM throughout.

For `COc1cc(C2c3cc4c(cc3OC(Nc3ccccc3)C2C)OCO4)cc(OC)c1OC` (centres undefined), the TGI in the test on OVCAR-5 ovarian is over 100 µM; with HT29 colon, over 100 µM; with KM12 colon it was over 100 µM; in the test on COLO 205 colon, 14.5 µM; in the test on SN12C renal, over 100 µM; in the test with OVCAR-4 ovarian, over 100 µM. In addition, the TGI is over 100 µM in the test on MALME-3M melanoma; over 33 µM in the test with HCT-116 colon; 0.527 µM in the test on MDA-MB-435; 3.52 µM in the test on SF-295 CNS; over 100 µM in the test with T-47D breast; over 100 µM in the test with CAKI-1 renal. The TGI in the test with OVCAR-8 ovarian is over 31.6 µM; with HCC-2998 colon, over 26.6 µM; with DU-145 prostate it was over 100 µM; in the test with NCI-H23 lung, over 100 µM.

With `O=C(C1C(c2ccccc2)N1C(c1ccccc1)c1ccccc1)C1C(c2ccccc2)N1C(c1ccccc1)c1ccccc1` (centres undefined), the TGI was 81.2 µM with OVCAR-5 ovarian; 30.2 µM with HT29 colon; 72.8 µM in the test with KM12 colon; 46.9 µM with SN12C renal; over 100 µM with OVCAR-4 ovarian; 15.8 µM in the test on HCT-116 colon. Also, the TGI is over 100 µM with MDA-MB-435; over 100 µM in the test with SF-295 CNS; over 100 µM with T-47D breast; 16.6 µM with SR leukemia; over 100 µM in the test on OVCAR-8 ovarian; 37.8 µM with HCC-2998 colon.

Regarding `COC(=O)C(=O)C(C(=O)C(=O)Nc1ccccc1C(C)=O)c1nc2ccc(C(=O)c3ccccc3)cc2[nH]c1=O` (centres undefined), the TGI in the test on OVCAR-5 ovarian, in the test on HT29 colon, in the test on KM12 colon, in the test on SN12C renal, in the test on OVCAR-4 ovarian and in the test on MALME-3M melanoma was over 100 µM each time. For the same molecule, the TGI in the test on HOP-92 NSCLC, in the test on HCT-116 colon, in the test with SF-295 CNS, in the test with T-47D breast, with CAKI-1 renal and in the test on OVCAR-8 ovarian was over 100 µM throughout. In addition, the TGI with HCC-2998 colon and in the test with NCI-H23 lung was over 100 µM in each case.

Consider `Cc1ccc(Nc2nc(N)nc3c2ncn3C2OC(CO)C(O)C2O)cc1` (centres undefined), for which the TGI with OVCAR-5 ovarian, with HT29 colon, in the test with KM12 colon, with COLO 205 colon, in the test with SN12C renal and in the test on OVCAR-4 ovarian was over 100 µM in each case. The TGI with MALME-3M melanoma, with HOP-92 NSCLC, in the test on HCT-116 colon, in the test on MDA-MB-435, in the test with SF-295 CNS and in the test on T-47D breast was over 100 µM in each case. In addition, the TGI with CAKI-1 renal, in the test with OVCAR-8 ovarian, in the test on HCC-2998 colon, in the test on DU-145 prostate and in the test with NCI-H23 lung was over 100 µM each time.

`N#CC(Nc1ccccc1)c1ccc(C(C#N)Nc2ccccc2)cc1` (centres undefined): the TGI in the test with OVCAR-5 ovarian is over 100 µM; in the test on HT29 colon, 80.9 µM; in the test on KM12 colon, over 100 µM; in the test on COLO 205 colon, over 100 µM; with SN12C renal, over 100 µM; with OVCAR-4 ovarian it was over 100 µM. Moreover, the TGI in the test on MALME-3M melanoma, in the test on HOP-92 NSCLC, with HCT-116 colon, with MDA-MB-435, in the test with SF-295 CNS and in the test on T-47D breast was over 100 µM in each case. Moreover, the TGI in the test on CAKI-1 renal, in the test with OVCAR-8 ovarian, with HCC-2998 colon, in the test with DU-145 prostate and with NCI-H23 lung was over 100 µM throughout.

The values above are taken from PubChem BioAssay (NCI).
